From article PMC10238656 (Cancer discovery, 2023)
Where “and” joins values, the source holds several entries; their conditions need not be identical. Identical values can stand only once. Like-named read-outs stand apart in the source and are kept apart here. Each block holds one molecule with its values, some of them ahead of it.

Legend:
[1] = molecular target: full-length recombinant KDM5A (Homo sapiens, UniProt P29375); assay: KDM5A enzyme kinetic assay; type: biochemical
[2] = molecular target: full-length recombinant KDM5C (Homo sapiens, UniProt P41229); assay: KDM5C enzyme kinetic assay; type: biochemical
Chain of full-length recombinant KDM5C (P41229 whole entry): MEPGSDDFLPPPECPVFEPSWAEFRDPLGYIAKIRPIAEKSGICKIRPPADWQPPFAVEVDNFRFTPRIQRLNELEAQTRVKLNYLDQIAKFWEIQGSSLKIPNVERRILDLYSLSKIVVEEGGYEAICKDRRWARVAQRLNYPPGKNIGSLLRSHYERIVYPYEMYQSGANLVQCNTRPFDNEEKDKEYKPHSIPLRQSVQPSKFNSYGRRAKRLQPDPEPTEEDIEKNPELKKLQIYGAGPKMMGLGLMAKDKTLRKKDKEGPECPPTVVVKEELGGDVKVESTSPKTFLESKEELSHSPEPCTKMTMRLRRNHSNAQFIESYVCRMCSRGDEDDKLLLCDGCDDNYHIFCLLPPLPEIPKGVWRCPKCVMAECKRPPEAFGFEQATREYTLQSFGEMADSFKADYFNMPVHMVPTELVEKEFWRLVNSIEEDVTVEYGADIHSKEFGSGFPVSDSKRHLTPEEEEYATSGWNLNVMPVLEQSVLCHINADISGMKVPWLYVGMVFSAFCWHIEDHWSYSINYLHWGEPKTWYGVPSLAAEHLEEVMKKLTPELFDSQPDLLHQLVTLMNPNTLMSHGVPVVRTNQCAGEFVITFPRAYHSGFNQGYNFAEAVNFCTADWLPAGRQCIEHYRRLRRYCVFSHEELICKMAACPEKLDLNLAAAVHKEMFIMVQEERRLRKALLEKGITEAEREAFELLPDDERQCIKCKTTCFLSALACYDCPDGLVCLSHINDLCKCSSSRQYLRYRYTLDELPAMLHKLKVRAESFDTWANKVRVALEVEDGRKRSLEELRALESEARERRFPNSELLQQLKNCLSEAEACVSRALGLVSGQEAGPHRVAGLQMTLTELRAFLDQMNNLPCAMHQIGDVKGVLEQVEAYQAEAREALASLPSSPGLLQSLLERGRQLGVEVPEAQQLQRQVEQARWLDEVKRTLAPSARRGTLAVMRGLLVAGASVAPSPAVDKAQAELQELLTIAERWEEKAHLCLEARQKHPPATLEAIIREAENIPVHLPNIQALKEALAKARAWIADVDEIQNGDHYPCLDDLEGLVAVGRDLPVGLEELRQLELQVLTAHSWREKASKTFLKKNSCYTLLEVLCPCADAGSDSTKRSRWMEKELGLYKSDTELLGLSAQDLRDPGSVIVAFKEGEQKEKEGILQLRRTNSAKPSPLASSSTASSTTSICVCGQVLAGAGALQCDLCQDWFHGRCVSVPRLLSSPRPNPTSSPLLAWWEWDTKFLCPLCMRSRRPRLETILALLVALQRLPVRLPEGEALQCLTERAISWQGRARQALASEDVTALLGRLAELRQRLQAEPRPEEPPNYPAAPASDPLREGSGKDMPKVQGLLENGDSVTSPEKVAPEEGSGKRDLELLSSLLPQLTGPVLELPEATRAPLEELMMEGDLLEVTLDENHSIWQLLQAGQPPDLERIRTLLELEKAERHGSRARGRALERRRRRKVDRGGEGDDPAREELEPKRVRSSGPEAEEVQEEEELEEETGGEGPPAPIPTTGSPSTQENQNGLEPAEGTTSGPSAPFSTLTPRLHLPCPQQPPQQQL

[3] = molecular target: full-length recombinant KDM5D (Homo sapiens, UniProt Q9BY66)
Chain of full-length recombinant KDM5D (Q9BY66 whole entry): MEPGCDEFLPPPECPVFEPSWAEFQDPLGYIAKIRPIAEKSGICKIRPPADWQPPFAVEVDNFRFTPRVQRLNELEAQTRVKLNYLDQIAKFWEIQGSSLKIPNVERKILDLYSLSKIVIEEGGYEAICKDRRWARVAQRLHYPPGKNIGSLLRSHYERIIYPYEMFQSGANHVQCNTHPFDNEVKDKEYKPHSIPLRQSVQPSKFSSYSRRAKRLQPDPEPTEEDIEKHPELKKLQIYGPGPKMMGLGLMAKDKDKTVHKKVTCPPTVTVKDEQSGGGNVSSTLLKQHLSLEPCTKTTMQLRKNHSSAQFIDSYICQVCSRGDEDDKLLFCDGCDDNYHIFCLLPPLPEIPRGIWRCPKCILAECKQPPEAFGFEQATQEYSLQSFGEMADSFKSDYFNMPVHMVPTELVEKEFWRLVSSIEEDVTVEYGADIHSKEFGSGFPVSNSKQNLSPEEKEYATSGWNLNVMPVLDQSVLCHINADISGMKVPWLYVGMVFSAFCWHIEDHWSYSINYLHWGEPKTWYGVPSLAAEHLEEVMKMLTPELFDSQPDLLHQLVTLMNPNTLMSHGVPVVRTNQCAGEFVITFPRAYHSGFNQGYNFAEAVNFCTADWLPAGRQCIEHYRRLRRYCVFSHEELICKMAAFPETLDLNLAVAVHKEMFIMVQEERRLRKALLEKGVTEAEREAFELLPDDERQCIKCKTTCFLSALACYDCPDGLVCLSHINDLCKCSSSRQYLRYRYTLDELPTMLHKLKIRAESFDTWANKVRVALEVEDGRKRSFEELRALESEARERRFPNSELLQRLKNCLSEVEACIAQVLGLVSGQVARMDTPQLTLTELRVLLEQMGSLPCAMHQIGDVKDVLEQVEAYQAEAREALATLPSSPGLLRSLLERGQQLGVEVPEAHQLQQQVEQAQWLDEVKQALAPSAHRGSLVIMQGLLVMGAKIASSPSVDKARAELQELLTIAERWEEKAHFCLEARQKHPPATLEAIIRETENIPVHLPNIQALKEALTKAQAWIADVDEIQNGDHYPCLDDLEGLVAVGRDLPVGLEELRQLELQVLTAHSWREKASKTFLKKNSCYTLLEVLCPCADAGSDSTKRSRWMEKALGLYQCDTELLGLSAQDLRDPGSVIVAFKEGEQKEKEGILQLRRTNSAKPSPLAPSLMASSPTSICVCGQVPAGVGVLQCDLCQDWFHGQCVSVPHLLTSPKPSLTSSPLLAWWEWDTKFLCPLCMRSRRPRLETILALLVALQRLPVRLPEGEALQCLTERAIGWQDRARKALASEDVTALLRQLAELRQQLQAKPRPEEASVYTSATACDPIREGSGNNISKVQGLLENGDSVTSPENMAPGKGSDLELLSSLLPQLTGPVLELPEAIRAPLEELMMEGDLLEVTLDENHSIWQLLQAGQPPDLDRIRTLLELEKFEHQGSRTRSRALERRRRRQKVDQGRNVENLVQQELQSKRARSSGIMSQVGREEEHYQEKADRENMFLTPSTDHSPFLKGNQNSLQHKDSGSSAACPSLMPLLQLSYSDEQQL

KDM5B = conditions: cited from earlier work
TET2 = conditions: cited from earlier work
KDM5A^F68L = KDM5A^F68L (Homo sapiens, UniProt P29375, F68L); type: biochemical
Chain of KDM5A^F68L (P29375 whole entry F68L): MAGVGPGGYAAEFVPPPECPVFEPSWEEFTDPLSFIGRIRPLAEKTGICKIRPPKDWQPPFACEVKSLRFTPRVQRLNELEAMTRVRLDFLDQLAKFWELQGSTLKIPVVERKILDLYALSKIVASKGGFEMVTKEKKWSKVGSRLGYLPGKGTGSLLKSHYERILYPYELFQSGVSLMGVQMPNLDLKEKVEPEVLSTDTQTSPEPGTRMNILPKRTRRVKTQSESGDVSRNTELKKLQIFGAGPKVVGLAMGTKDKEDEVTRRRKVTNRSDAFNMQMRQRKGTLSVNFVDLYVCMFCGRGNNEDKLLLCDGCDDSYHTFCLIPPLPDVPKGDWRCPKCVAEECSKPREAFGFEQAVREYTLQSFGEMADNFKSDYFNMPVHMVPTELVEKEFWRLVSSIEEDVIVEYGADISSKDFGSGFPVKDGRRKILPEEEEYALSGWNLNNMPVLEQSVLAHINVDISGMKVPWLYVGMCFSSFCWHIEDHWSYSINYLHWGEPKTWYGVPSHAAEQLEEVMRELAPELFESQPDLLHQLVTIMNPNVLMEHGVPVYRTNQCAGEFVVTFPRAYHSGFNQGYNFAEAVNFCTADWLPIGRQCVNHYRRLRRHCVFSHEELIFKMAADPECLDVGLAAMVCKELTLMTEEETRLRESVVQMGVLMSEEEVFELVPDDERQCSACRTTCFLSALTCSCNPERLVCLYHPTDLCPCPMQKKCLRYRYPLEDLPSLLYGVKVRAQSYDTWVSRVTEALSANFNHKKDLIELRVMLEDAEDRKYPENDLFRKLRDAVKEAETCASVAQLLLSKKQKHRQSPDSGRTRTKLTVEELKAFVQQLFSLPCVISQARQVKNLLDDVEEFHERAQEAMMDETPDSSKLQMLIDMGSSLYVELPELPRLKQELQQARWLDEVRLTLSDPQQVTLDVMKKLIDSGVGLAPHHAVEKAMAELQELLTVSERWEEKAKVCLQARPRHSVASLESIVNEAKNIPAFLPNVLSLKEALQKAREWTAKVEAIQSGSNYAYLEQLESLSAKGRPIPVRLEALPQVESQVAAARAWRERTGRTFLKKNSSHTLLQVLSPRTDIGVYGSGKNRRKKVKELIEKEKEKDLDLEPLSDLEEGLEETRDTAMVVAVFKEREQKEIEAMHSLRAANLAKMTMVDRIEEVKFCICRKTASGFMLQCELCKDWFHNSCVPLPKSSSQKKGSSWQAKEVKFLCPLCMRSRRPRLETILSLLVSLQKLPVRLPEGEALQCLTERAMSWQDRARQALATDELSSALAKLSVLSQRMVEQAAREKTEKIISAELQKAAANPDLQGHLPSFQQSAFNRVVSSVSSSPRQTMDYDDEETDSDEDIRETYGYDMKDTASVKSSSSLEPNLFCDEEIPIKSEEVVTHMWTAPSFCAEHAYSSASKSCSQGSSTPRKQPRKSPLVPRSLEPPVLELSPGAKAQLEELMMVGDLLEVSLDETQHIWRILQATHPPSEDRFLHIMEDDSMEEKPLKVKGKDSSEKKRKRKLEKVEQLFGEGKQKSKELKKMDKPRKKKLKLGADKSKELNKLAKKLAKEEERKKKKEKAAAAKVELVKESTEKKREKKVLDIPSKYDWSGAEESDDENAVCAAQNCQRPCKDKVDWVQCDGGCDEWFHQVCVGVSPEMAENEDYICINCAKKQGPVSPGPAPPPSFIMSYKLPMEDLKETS

KDM5A^R429I = KDM5A^R429I (Homo sapiens, UniProt P29375, R429I); type: biochemical
Chain of KDM5A^R429I (P29375 whole entry R429I): as the sequence (P29375 whole entry F68L) above, with L68F, R429I counted along it

[4] = test system: global 5hmC levels in TF-1 cells; assay: Total 5hmC content by LC-MS; type: cell-based, human; conditions: 21 days in the presence of KDM5c70, day 0 of cytokine withdrawal
TF-1 cells = assay: TF-1 cytokine-withdrawal assay; type: cell-based, human; conditions: parental TF-1 cells passaged 21 days in the presence of KDM5c70
[5] = test system: global H3K4 trimethylation in TF-1 cells; assay: Immunoblot analysis of global trimethyl-H3K4; type: cell-based, human; conditions: 50 nM KDM5c70, 21 days, vs DMSO-treated TF-1 cells
[6] = test system: trimethyl-H3K4 at sites differentially marked in TF1-IDH1^R132H cells, TF-1 cells; assay: Trimethyl-H3K4 ChIP-seq; type: cell-based, human; conditions: KDM5c70-treated TF-1 cells vs DMSO
IHA cells = assay: Soft agar colony-forming assay; type: cell-based, human; conditions: 50 nM KDM5c70, IHA cells passaged 7 times in the presence of KDM5c70
TF1-IDH1^R132H cells [7] = assay: Proliferation under cytokine-rich conditions; type: cell-based, human; conditions: doses up to 100 nM, cytokine-rich media
control TF-1 cells = assay: Proliferation under cytokine-rich conditions; type: cell-based, human; conditions: doses up to 100 nM, cytokine-rich media
TF1-IDH1^R132H cells [8] = assay: Cytokine-withdrawal assay of mutant IDH-transformed TF-1 cells; type: cell-based, human
TF1-shTET2 cells = assay: Cytokine-withdrawal assay of TET2-knockdown TF-1 cells; type: cell-based, human; conditions: pre-treatment for two weeks prior to cytokine withdrawal
[9] = read-out: 2OG Km, mean ± SD of 3 to 7 assays, 50 mM Tris-HCl pH 7.5, 37 °C
[10] = read-out: (R)-2HG IC50, fourfold 2OG concentration relative to 2OG Km
[11] = read-out: (S)-2HG IC50, fourfold 2OG concentration relative to 2OG Km

Chain of full-length recombinant KDM5A (P29375 whole entry): as the sequence (P29375 whole entry F68L) above, with L68F counted along it

Structure (SMILES): O=C(O)CCC(=O)C(=O)O [2OG, 2-oxoglutarate]
Km ([1]; read-out: 2OG Km, mean ± SD of 3 to 7 assays, 50 mM MES pH 6.5, 37 °C): 4.5 ± 0.3 µM
Km [2, 9]: 2.7 ± 0.4 µM
Km [3, 9]: 4.3 ± 1.5 µM
Km (KDM5B; read-out: 2OG Km): 10 ± 2 µM
Km (TET2; read-out: 2OG Km): 55 ± 20 µM

IC50 [1, 10]: 930 ± 200 µM
IC50 [2, 10]: 670 ± 100 µM
IC50 [3, 10]: 800 ± 190 µM
Structure (SMILES): O=C(O)CC[C@@H](O)C(=O)O [(R)-2HG, (R)-2-hydroxyglutarate]
sensitivity to inhibition by (R)-2HG compared with wild-type KDM5A (KDM5A^F68L): similarly sensitive to inhibition by (R)-2HG
sensitivity to inhibition by (R)-2HG compared with wild-type KDM5A (KDM5A^R429I): similarly sensitive to inhibition by (R)-2HG
IC50 (TET2; read-out: (R)-2HG IC50): ~5000 µM and 5000 µM

inhibition of KDM5A (in words) [1]: potently inhibited
IC50 [1, 11]: 150 ± 100 µM
inhibition of KDM5C (in words) [2]: potently inhibited
IC50 [2, 11]: 200 ± 10 µM
inhibition of KDM5D (in words) [3]: potently inhibited
IC50 [3, 11]: 310 ± 30 µM
Structure (SMILES): O=C(O)CC[C@H](O)C(=O)O [(S)-2HG]
IC50 (TET2; read-out: (S)-2HG IC50): 1600 µM

Structure (SMILES): CCOC(=O)c1ccnc(CNCC(=O)N(CC)CCN(C)C)c1 [KDM5c70]
effect on global 5hmC levels [4]: neither KDM5A/C/D triple knockout nor treatment with KDM5c70 had a significant effect
induction of TF-1 cytokine independence (TF-1 cells): sufficient to induce TF-1 cytokine independence
effect on global trimethyl-H3K4 levels (western blot) [5]: increased global levels of trimethyl-H3K4
trimethyl-H3K4 ChIP-seq signal at sites enriched in TF1-IDH1^R132H cells [6]: trimethyl-H3K4-rich regions were enriched
soft agar colony formation (IHA cells): sufficient to induce soft agar colony formation

Structure (SMILES): CC(C)N(C(=O)c1cc(F)ccc1Oc1cncnc1N1CC2(CCN(CC3CCC(NS(C)(=O)=O)CC3)CC2)C1)C(C)C (centres unmarked) [VTP50469]
effect on cytokine-dependent proliferation (TF1-IDH1^R132H cells [7]): no effect
effect on cytokine-dependent proliferation (control TF-1 cells): no effect
effect on cytokine independence (TF1-IDH1^R132H cells [8]; pre-treatment for two weeks prior to cytokine withdrawal): did inhibit TF1-IDH1^R132H cytokine independence in a dose-dependent manner
effect on cytokine independence (TF1-IDH1^R132H cells [8]; treatment started on day 0 of cytokine withdrawal): no effect
effect on cytokine independent proliferation (TF1-shTET2 cells): inhibited the cytokine independent proliferation of TF1-shTET2 cells to a similar extent as TF1-IDH1^R132H cells
